The values that follow come from patent US9670242B2, “Tetracyclic anthraquinone derivatives” (Tianjin Hemay Bio-Tech Co., Ltd, priority 2012, dated 2017).

Where a name gives a salt, the structure may show the parent alone.

One data set concerns MDA-MB-453 cells. As to the kind of experiment: MDA-MB-453 cell growth inhibition test (SRB assay). Format: cell-based, human. The settings on record: growth inhibition at 2000 nM, 69.5 h. The method, then: MDA-MB-453 Cell Growth Inhibition Test (SRB Assay)
Cell strains: MDA-MB-453 (human breast cancer cell strains); SRB: 0.4% (w/v) working solution was formulated with 1% glacial acetic acid, reserved at 4° C.; antitumor compounds; DMSO.
(§1) II. Reagents and Consumable Materials
Culture medium: 90% L15+10% FBS; pancreatin (0.25% (w/v) solution was formulated with PBS, 0.53 mM of EDTA was added in the formulation); PBS; 96-well culture plate.
(§2) 1. A plate (10 cm) of cells in logarithmic growth phase that were normally cultured was collected;
(§3) 2. The culture solution was sucked out. The plate was washed with 5 mL of PBS once or twice;
(§4) 3. 1.5 mL of 0.25% pancreatin was added to the plate to infiltrate the cells;
(§5) 4. The pancreatin was sucked out. The culture plate was placed in an incubator. Digestion was carried out for about 3 min at 37° C.;
5. 4 mL of complete culture solution was added to the culture plate to stop the digestion. The cells were carefully scoured with micropipette (1 ml) to give a uniform single cell suspension. The suspension was implanted into a 96-well cell culture plate by 7000 cells/100 μL per well. The culture plate was incubated overnight under 5% CO2 at 37° C. In day 2, 100 μL of culture solution comprising a compound was added in each well.
The plate was further incubated for 69.5 h under 5% CO2 at 37° C.;
(§6) 6. The culture solution was sucked out. 100 uL of TCA fixed cells which were diluted to 10% were added to each well. The plate was kept in a refrigerator for 1 h at 4° C.
(§7) 7. TCA stationary liquid was sucked out. Each well was washed with 150 μL of ddH2O five times;
(§8) 8. After the stationary liquid was cleansed, the plate was dried in the air at the room temperature;
(§9) 9. 60 μL of SRB staining solution was added in each well. The well was stained for 15 min at the room temperature;
(§10) 10. The SRB staining solution was sucked out. Each well was washed with 150 μL of 1% glacial acetic acid five times;
(§11) 11. After the SRB staining solution was cleansed, the plate was dried in the air at the room temperature;
(§12) 12. 100 μL of 10 mM Tris was added in each well. The plate was vibrated to dissolve out SRB;
(§13) 13. OD values were determined at 570 nM.
(§14) IV. Results and Treatments
(§15) 1. Calculation of Relative Inhibition Ratio The inhibition ratio of a compound on cell growth=(PC−n)/(PC−NC)×100%
(§16) PC: OD values of cells after normal growth in control wells without a compound;
(§17) n: OD values of cells after growth in test wells with a compound;
(§18) NC: Background OD values of blank wells without a compound and cells.

Another data set deals with 22Rv1 cells. As to the kind of experiment: 22Rv1 cell growth inhibition test (SRB assay). The format is cell-based, human. The conditions noted are these: growth inhibition at 222 nM, 73 h. The method, then:
22Rv1 Cell Growth Inhibition Test (SRB Assay)
Cell strains: 22Rv1 (human prostate cancer cell strains); SRB: 0.4% (w/v) working solution was formulated with 1% glacial acetic acid, reserved at 4° C.; antitumor compounds; DMSO.
as §1
(§19) Culture medium: 90% RPMI-1640+10% FBS; Pancreatin (0.25% (w/v) solution was formulated with PBS, 0.53 mM of EDTA was added in the formulation); PBS; 96-well culture plate.
as §2, §3, §4, §5
5. 4 mL of complete culture solution was added to the culture plate to stop the digestion. The cells were carefully scoured with micropipette (1 ml) to give a uniform single cell suspension. The suspension was implanted into a 96-well cell culture plate by 7000 cells/100 μL per well. The culture plate was incubated overnight under 5% CO2 at 37° C. In day 2, 100 μL of culture solution comprising a compound was added in each well. The plate was further incubated for 73 h under 5% CO2 at 37° C.;
as §6, §7, §8, §9, §10, §11, §12, §13, §14, §15, §16, §17, §18
In general terms: The SRB assay estimates cell density from bound dye.

For another data set, the system named is NCI-H446 cells. Put plainly: NCI-H446 cell growth inhibition test (MTT assay). The format is cell-based, human. The conditions noted are these: growth inhibition at 222 nM, 70 h. The method, then: NCI-H446 Cell Growth Inhibition Test (MTT Assay)
Cell strains: NCI-H446 (human small cell lung cancer cell strains); MTT; antitumor compounds; DMSO.
as §1, §19, §2, §3
(§20) 3. PBS was sucked out. 1.5 mL of 0.25% pancreatin was added to infiltrate the cells;
4. The culture plate was placed in an incubator. Digestion was carried out for about 3 min at 37° C.;
5. 3 mL of complete culture solution was added to the culture plate to stop the digestion. The cells were carefully scoured with micropipette (1 ml) to give a uniform cell suspension. The suspension was implanted into a 96-well cell culture disc by 4000 cells/100 μL per well. The culture plate was incubated overnight under 5% CO2 at 37° C. In day 2, 100 μL of culture solution comprising a compound was added in each well. The plate was further incubated for 70 h under 5% CO2 at 37° C.;
(§21) 6. The culture solution was sucked out;
(§22) 7. 100 μL of serum-free culture solution containing 0.5 mg/mL MTT was added in each well. The plate was incubated for 3 h;
(§23) 8. The culture solution was carefully sucked out;
(§24) 9. 100 μL of DMSO was added into each well and vibrated to dissolve;
(§25) 10. OD values were determined at 490 nM.
as §14, §15, §16, §17, §18
A general note: Tetrazolium assays rely on reduction of a dye to a coloured formazan, in cell work by metabolically active cells.

Data set [1] can be described thus: Solubility of the compound in water. The format is physicochemical.
A further data set has as its system BxPc-3 cells. As to the kind of experiment: BxPc-3 cell growth inhibition test (MTT assay). The format is cell-based, human. The settings on record: growth inhibition at 2000 nM, 70 h. The method, then: BxPc-3 Cell Growth Inhibition Test (MTT Assay)
Cell strains: BxPC-3 (human pancreatic cancer cell strains); MTT; antitumor compounds; DMSO.
as §1, §19, §2, §3, §20
4. The culture plate was placed in an incubator. Digestion was carried out for about 8 min at 37° C.;
5. 4.5 mL of complete culture solution was added to the culture plate to stop the digestion. The cells were carefully scoured with micropipette (1 ml) to give a uniform cell suspension. The suspension was implanted into a 96-well cell culture disc by 5000 cells/100 μL per well. The culture plate was incubated overnight under 5% CO2 at 37° C. In day 2, 100 μL of culture solution comprising a compound was added in each well. The plate was further incubated for 70 h under 5% CO2 at 37° C.;
as §21, §22, §23, §24, §25, §14, §15, §16, §17, §18

The subject of a further data set is SK-OV-3 cells. Put plainly: SK-OV-3 cell growth inhibition test (MTT assay). Format: cell-based, human. The conditions noted are these: growth inhibition at 667 nM, 69 h. The method, then: SK-OV-3 Cell Growth Inhibition Test (MTT Assay)
Cell strains: SK-OV-3 (human ovarian cancer cell strains); MTT; antitumor compounds; DMSO.
as §1
Culture medium: 90% McCoy's 5A+10% FBS; Pancreatin (0.25% (w/v) solution was formulated with PBS, 0.53 mM of EDTA was added in the formulation); PBS; 96-well culture plate.
as §2, §3, §20
4. The pancreatin was sucked out. The culture plate was placed in an incubator. Digestion was carried out for about 5 min at 37° C.;
5. 4.5 mL of complete culture solution was added to the culture plate to stop the digestion. The cells were carefully scoured with micropipette (1 ml) to give a uniform cell suspension. The suspension was implanted into a 96-well cell culture disc by 4000 cells/100 μL per well. The culture plate was incubated overnight under 5% CO2 at 37° C. In day 2, 100 μL of culture solution comprising a compound was added in each well. The plate was further incubated for 69 h under 5% CO2 at 37° C.;
as §21, §22, §23
(§26) 9. 100 μL of DMSO was added in each well and vibrated to dissolve;
as §25, §14, §15, §16, §17, §18

The subject of another data set is A431 cells. Put plainly: A431 cell growth inhibition test (MTT assay). Format: cell-based, human. The settings on record: 72 h. The method, then:
A431 Cell Growth Inhibition Test (MTT Assay)
as §1
Culture medium: 45% DMEM+45% F12+10% FBS (fetal calf serum); Pancreatin (0.25% (w/v) solution was formulated with PBS, 0.53 mM of EDTA was added in the formulation); PBS; 96-well culture plate.
as §2, §3
(§27) 3. PBS was sucked out. 1.5 mL of 0.25% pancreatin was added to the plate to infiltrate the cells for 1 min;
(§28) 4. The culture plate was placed in an incubator. Digestion was carried out for about 5 min at 37° C.;
5. 3 mL of complete culture solution was added to the culture plate to stop the digestion. The cells were carefully scoured with micropipette (1 mL) to give a uniform cell suspension. The suspension was implanted into a 96-well cell culture disc by 2500 cells/100 μL per well. The culture plate was incubated overnight under 5% CO2 at 37° C. In day 2, 100 μL of culture solution comprising a compound was added in each well. The plate was further incubated for 72 h under 5% CO2 at 37° C.;
as §21, §22, §23, §26, §25, §14, §15, §16, §17, §18

The next data set has as its system A375 cells. As to the kind of experiment: A375 cell growth inhibition test (MTT assay). Format: cell-based, human. The settings on record: 72 h. The method, then: A375 Cell Growth Inhibition Test (MTT Assay)
as §1
Culture medium: 90% DMEM+10% FBS (fetal calf serum); Pancreatin (0.25% (w/v) solution was formulated with PBS, 0.53 mM of EDTA was added in the formulation); PBS; 96-well culture plate.
as §2, §3, §27, §28
5. 3 mL of complete culture solution was added to the culture plate to stop the digestion. The cells were carefully scoured with micropipette (1 ml) to give a uniform cell suspension. The suspension was implanted into a 96-well cell culture disc by 3000 cells/100 μL per well. The culture plate was incubated overnight under 5% CO2 at 37° C. In day 2, 100 μL of culture solution comprising a compound was added in each well. The plate was further incubated for 72 h under 5% CO2 at 37° C.;
as §21, §22, §23, §26, §25, §14, §15, §16, §17, §18

In the case of `CC(=O)O.COc1cccc2c1C(=O)c1c(O)c3c(c(O)c1C2=O)CC(O)(C(=O)COC(=O)CCC(=O)NCCOCCN(C)C)CC3O[C@H]1C[C@H](n2cccc2)[C@H](O)[C@H](C)O1` (stereo partly drawn) [Example 76, 10-((3′-(pyrrol-1-yl)-2′,3′,6′-trideoxy-alphal-l-lyxo-hexylpyranyl)oxy)-7,8,9,10-tetrahydro-6,8,11-trihydroxy-13-oxo-14-(4-(2-(2-(dimethylamino)ethoxy)ethylamino)-4-oxo-butyrato)-1-methoxy-5,12-naphthalenedione acetate], the “Inhibition Ratio (%)” value worked out at 62.7% in the data set with MDA-MB-453 cells; 49.2% with 22Rv1 cells; 46% with NCI-H446 cells; 77.1% with BxPc-3 cells; 46.4% with SK-OV-3 cells. In addition, the “solubility of the compound in water” value in data set [1] is reported as “more than 9 mg/ml”.

As for `COc1cccc2c1C(=O)c1c(O)c3c(c(O)c1C2=O)CC(O)(C(=O)COC(=O)CCCC(=O)NCCN1CCOCC1)CC3OC1CC(n2cccc2)C(O)C(C)O1` (stereo not drawn) [Example 97], the figures for the IC50 with A431 cells and in the data set on A375 cells were 45 nM and 28 nM, respectively.

Regarding `COc1cccc2c1C(=O)c1c(O)c3c(c(O)c1C2=O)CC(O)(C(=O)COC(=O)CCC(=O)NCCN1CCOCC1)CC3O[C@H]1C[C@H](n2cccc2)[C@H](O)[C@H](C)O1` (stereo partly drawn) [Example 99, 10-((3′-(pyrrol-1-yl)-2′,3′,6′-trideoxy-alphal-l-lyxo-hexylpyranyl)oxy)-7,8,9,10-tetrahydro-6,8,11-trihydroxy-13-oxo-14-(4-((2-(morpholin-1-yl)ethyl)amino)-4-oxo-butyrato)-1-methoxy-5,12-naphthalenedione hydrochloride], the IC50 with A375 cells (hydrochloride) is 35 nM.

As a reminder, the IC50 is the concentration at which inhibition is half-maximal.
